Bounds are passed on as bounds.

Chain of USP19 (O94966 whole entry): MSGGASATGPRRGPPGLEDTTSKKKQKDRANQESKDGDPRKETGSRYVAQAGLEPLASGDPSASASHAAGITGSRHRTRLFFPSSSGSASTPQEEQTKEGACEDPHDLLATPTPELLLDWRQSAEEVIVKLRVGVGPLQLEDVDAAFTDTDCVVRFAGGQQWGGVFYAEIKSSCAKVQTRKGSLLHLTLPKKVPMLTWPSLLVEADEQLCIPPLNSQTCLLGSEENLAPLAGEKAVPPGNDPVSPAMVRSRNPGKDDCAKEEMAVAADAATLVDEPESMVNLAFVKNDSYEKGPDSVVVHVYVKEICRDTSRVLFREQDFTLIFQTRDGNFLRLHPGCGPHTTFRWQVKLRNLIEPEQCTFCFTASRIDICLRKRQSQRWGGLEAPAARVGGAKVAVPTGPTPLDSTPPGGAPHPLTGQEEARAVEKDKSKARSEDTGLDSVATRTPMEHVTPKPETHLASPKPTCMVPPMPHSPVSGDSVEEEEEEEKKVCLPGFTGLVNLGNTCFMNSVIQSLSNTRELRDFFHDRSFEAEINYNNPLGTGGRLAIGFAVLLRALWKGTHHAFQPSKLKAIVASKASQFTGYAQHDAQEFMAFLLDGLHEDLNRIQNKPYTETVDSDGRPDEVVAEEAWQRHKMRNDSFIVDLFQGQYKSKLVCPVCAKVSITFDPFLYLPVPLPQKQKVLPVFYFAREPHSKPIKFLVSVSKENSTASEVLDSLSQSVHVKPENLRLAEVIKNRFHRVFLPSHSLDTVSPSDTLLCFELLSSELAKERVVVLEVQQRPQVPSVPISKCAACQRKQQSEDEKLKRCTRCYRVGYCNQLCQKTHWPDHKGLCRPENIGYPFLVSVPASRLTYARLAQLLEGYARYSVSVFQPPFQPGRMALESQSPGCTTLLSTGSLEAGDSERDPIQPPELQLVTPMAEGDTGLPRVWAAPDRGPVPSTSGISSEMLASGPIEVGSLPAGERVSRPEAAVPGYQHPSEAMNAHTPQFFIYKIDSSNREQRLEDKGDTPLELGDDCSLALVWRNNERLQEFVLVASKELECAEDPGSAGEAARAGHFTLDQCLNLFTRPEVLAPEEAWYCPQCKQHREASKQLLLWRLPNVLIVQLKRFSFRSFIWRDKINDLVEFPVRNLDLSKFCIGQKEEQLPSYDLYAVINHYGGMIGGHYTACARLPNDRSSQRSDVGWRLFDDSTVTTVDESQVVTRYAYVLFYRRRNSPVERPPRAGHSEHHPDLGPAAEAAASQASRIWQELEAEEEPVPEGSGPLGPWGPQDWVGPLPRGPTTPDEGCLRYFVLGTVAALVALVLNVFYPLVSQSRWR

The experiment has as its target USP19 (Homo sapiens (Human), UniProt O94966). The experiment is described as follows: USP19 activity assay (fluorescence polarisation, Ubiquitin-Lys-TAMRA substrate). It is filed as biochemical. The following applies: full-length USP19 2.5 nM, 30 min pre-incubation, Ub substrate 500 nM; average of at least two duplicate experiments. A general note: Fluorescence polarisation rises when a labelled molecule tumbles more slowly, as on binding a larger partner.
As for `C[C@H](CC1CCCCC1)C(=O)N1CCC(O)(Cn2cc(C(=O)N(C)C)c(-c3ccccc3)cc2=O)C2(CCOCC2)C1` (stereo partly drawn) [Example 234, 1-((2-((R)-3-Cyclohexyl-2-methylpropanoyl)-5-hydroxy-9-oxa-2-azaspiro[5.5]undecan-5-yl)methyl)-N,N-dimethyl-6-oxo-4-phenyl-1,6-dihydropyridine-3-carboxamide], the IC50 – broadly, the concentration that gives 50% inhibition – lay in the range of 0.5 to 5 µM. Turning to `C[C@H](CC1CCC1)C(=O)N1CC[C@@](O)(Cn2cc(C(=O)N3CCNCC3)c(-c3ccccc3F)cc2=O)C2(CCCC2)C1` [Example 224, 1-(((S)-7-((R)-3-Cyclobutyl-2-methylpropanoyl)-10-hydroxy-7-azaspiro[4.5]decan-10-yl)methyl)-4-(2-fluorophenyl)-5-(piperazine-1-carbonyl)pyridin-2(1H)-one], the IC50 was less than 0.5 µM.

In the case of `C[C@H](CC(F)(F)F)C(=O)N1CC[C@@](O)(Cn2cc(C(=O)N(C)C)c(-c3ccccc3)cc2=O)C2(CCCC2)C1` [Example 216, 1-(((S)-10-Hydroxy-7-((R)-4,4,4-trifluoro-2-methylbutanoyl)-7-azaspiro[4.5]decan-10-yl)methyl)-N,N-dimethyl-6-oxo-4-phenyl-1,6-dihydropyridine-3-carboxamide], the IC50 is less than 0.5 µM. Regarding `C[C@H](CC1CCCCC1)C(=O)N1CCC(O)(Cn2cnc(-c3ccc(CN)cc3)cc2=O)C(C)(C)C1` (stereo partly drawn) [Example 140, 6-(4-(Aminomethyl)phenyl)-3-((1-((R)-3-cyclohexyl-2-methylpropanoyl)-4-hydroxy-3,3-dimethylpiperidin-4-yl)methyl)pyrimidin-4(3H)-one], the IC50 was 0.5 to 5 µM. In the case of `CN(C)C(=O)c1cn(CC2(O)CCN(C(=O)C3(C)CCCC3)CC23CCCC3)c(=O)cc1-c1ccccc1` (stereo not drawn) [Example 186, 1-((10-Hydroxy-7-(1-methylcyclopentane-1-carbonyl)-7-azaspiro[4.5]decan-10-yl)methyl)-N,N-dimethyl-6-oxo-4-phenyl-1,6-dihydropyridine-3-carboxamide], the IC50 fell in the range of 50 to 250 µM. The same measure for `CC1(C(=O)N2CCC(O)(Cn3cnc(-c4ccccc4F)cc3=O)CC2)CCCCC1` [Example 42, 6-(2-Fluorophenyl)-3-((4-hydroxy-1-(1-methylcyclohexanecarbonyl)piperidin-4-yl)methyl)pyrimidin-4(3H)-one]: 5 to 50 µM; for `C[C@H](CC(=O)N1CCC(O)(Cn2cnc(-c3cccc4ccccc34)cc2=O)CC1)c1ccccc1` [Example 20, (R)-3-((4-Hydroxy-1-(3-phenylbutanoyl)piperidin-4-yl)methyl)-6-(naphthalen-1-yl)pyrimidin-4(3H)-one]: 5 to 50 µM; for `CC(OC1CCCCC1)C(=O)N1CCC(O)(Cn2cc(C(=O)N(C)C)c(-c3ccccc3)cc2=O)C2(CCCC2)C1` (stereo not drawn) [Example 199, 1-((7-(2-(Cyclohexyloxy)propanoyl)-10-hydroxy-7-azaspiro[4.5]decan-10-yl)methyl)-N,N-dimethyl-6-oxo-4-phenyl-1,6-dihydropyridine-3-carboxamide]: 5 to 50 µM. Under `CN(C)C(=O)c1cn(CC2(O)CCN(C(=O)C3CC3)CC23CCCC3)c(=O)cc1-c1ccccc1` (stereo not drawn) [Example 175, 1-((7-(Cyclopropanecarbonyl)-10-hydroxy-7-azaspiro[4.5]decan-10-yl)methyl)-N,N-dimethyl-6-oxo-4-phenyl-1,6-dihydropyridine-3-carboxamide] stands 50 to 250 µM; under `C[C@H](CC1CCC1)C(=O)N1CC[C@@](O)(Cn2cc(C(=O)N3CCNCC3)c(C3CC3)cc2=O)C2(CCCC2)C1` [Example 231, 1-(((S)-7-((R)-3-Cyclobutyl-2-methylpropanoyl)-10-hydroxy-7-azaspiro[4.5]decan-10-yl)methyl)-4-cyclopropyl-5-(piperazine-1-carbonyl)pyridin-2(1H)-one], 0.5 to 5 µM; under `CN(C)C(=O)c1cn(CC2(O)CCN(C(=O)C3CCC(F)C3)CC23CCCC3)c(=O)cc1-c1ccccc1` (stereo not drawn) [Example 177, 1-((7-(3-Fluorocyclopentane-1-carbonyl)-10-hydroxy-7-azaspiro[4.5]decan-10-yl)methyl)-N,N-dimethyl-6-oxo-4-phenyl-1,6-dihydropyridine-3-carboxamide], 50 to 250 µM. With `C[C@H](CC(=O)N1CCC(O)(Cn2cc(C(=O)N3CCN(C(=O)OC(C)(C)C)CC3)c(-c3ccccc3)cc2=O)CC1)c1ccccc1` [Example 93, (R)-tert-Butyl 4-(1-((4-hydroxy-1-(3-phenylbutanoyl)piperidin-4-yl)methyl)-6-oxo-4-phenyl-1,6-dihydropyridine-3-carbonyl)piperazine-1-carboxylate], the IC50 lay in the range of 5 to 50 µM.

For `O=C(c1cn(C[C@]2(O)CCN(C(=O)[C@H](CO)CC(F)(F)F)CC23CCCC3)c(=O)cc1-c1ccccc1)N1CCNCC1` [Example 249, 1-(((S)-10-Hydroxy-7-((S)-4,4,4-trifluoro-2-(hydroxymethyl)butanoyl)-7-azaspiro[4.5]decan-10-yl)methyl)-4-phenyl-5-(piperazine-1-carbonyl)pyridin-2(1H)-one], the IC50 is less than 0.5 µM. Under `CN(C)C(=O)c1cn(CC2(O)CCN(C(=O)[C@H](COCc3ccccc3)CC3CCCCC3)CC2(C)C)c(=O)cc1-c1ccccc1` (stereo partly drawn) [Example 146, 1-((1-((S)-3-(Benzyloxy)-2-(cyclohexylmethyl)propanoyl)-4-hydroxy-3,3-dimethylpiperidin-4-yl)methyl)-N,N-dimethyl-6-oxo-4-phenyl-1,6-dihydropyridine-3-carboxamide] stands 0.5 to 5 µM.

`C[C@H](CC1CCCCC1)C(=O)N1CCC(O)(Cn2cc(-c3ncco3)c(-c3ccccc3)cc2=O)C(C)(C)C1` (stereo partly drawn) [Example 136, 1-((1-((R)-3-Cyclohexyl-2-methylpropanoyl)-4-hydroxy-3,3-dimethylpiperidin-4-yl)methyl)-5-(oxazol-2-yl)-4-phenylpyridin-2(1H)-one]: the IC50 was in the range of 0.5 to 5 µM. In the case of `C[C@H](CC(=O)N1CCC(O)(Cn2cnc(-c3cccc(C4OCCO4)c3)cc2=O)CC1)c1ccccc1` [Example 21, (R)-6-(3-(1,3-Dioxolan-2-yl)phenyl)-3-((4-hydroxy-1-(3-phenylbutanoyl)piperidin-4-yl)methyl)pyrimidin-4(3H)-one], the IC50 lay within 5 to 50 µM. In the case of `C[C@H](CC1CCCCC1)C(=O)N1CC[C@@](O)(Cn2cc(C(=O)N3CCNCC3)c(C3CC3)cc2=O)C(C)(C)C1` [Example 221, 1-(((S)-1-((R)-3-Cyclohexyl-2-methylpropanoyl)-4-hydroxy-3,3-dimethylpiperidin-4-yl)methyl)-4-cyclopropyl-5-(piperazine-1-carbonyl)pyridin-2(1H)-one], the IC50 lay in the range of 0.5 to 5 µM. The same measure for `CN(C)C(=O)c1cn(CC2(O)CCN(C(=O)CCc3ccc(F)cc3)CC23CCCC3)c(=O)cc1-c1ccccc1` (stereo not drawn) [Example 184, 1-((7-(3-(4-Fluorophenyl)propanoyl)-10-hydroxy-7-azaspiro[4.5]decan-10-yl)methyl)-N,N-dimethyl-6-oxo-4-phenyl-1,6-dihydropyridine-3-carboxamide]: 0.5 to 5 µM.

`C[C@H](CC1CCCCC1)C(=O)N1CCC(O)(Cn2cc(C(=O)N(C)C)c(Cl)cc2=O)C2(CCCC2)C1` (stereo partly drawn) [Example 144, 4-chloro-1-((7-((R)-3-cyclohexyl-2-methylpropanoyl)-10-hydroxy-7-azaspiro[4.5]decan-10-yl)methyl)-N,N-dimethyl-6-oxo-1,6-dihydropyridine-3-carboxamide]: the IC50 is less than 0.5 µM. Under `CN(C)C(=O)c1cn(CC2(O)CCN(C(=O)COC3CCC3)CC23CCCC3)c(=O)cc1-c1ccccc1` (stereo not drawn) [Example 201, 1-((7-(2-Cyclobutoxyacetyl)-10-hydroxy-7-azaspiro[4.5]decan-10-yl)methyl)-N,N-dimethyl-6-oxo-4-phenyl-1,6-dihydropyridine-3-carboxamide] stands 5 to 50 µM; under `C[C@H](CC(F)(F)F)C(=O)N1CC[C@@](O)(Cn2cc(C(=O)N3CCNCC3)c(-c3ccccc3)cc2=O)C2(CCCC2)C1` [Example 217, 1-(((S)-10-Hydroxy-7-((R)-4,4,4-trifluoro-2-methylbutanoyl)-7-azaspiro[4.5]decan-10-yl)methyl)-4-phenyl-5-(piperazine-1-carbonyl)pyridin-2(1H)-one], less than 0.5 µM. The same measure for `C[C@H](CC1CCCCC1)C(=O)N1CCC(O)(Cn2cnccc2=O)C2(CCCC2)C1` (stereo partly drawn) [Example 134, 3-((7-((R)-3-Cyclohexyl-2-methylpropanoyl)-10-hydroxy-7-azaspiro[4.5]decan-10-yl)methyl)pyrimidin-4(3H)-one]: 5 to 50 µM. Under `C[C@H](CC1CCCCC1)C(=O)N1CC[C@@](O)(Cn2cc(C(=O)N3CCNCC3)c(-c3ccccc3F)cc2=O)C(C)(C)C1` [Example 206, 1-(((S)-1-((R)-3-Cyclohexyl-2-methylpropanoyl)-4-hydroxy-3,3-dimethylpiperidin-4-yl)methyl)-4-(2-fluorophenyl)-5-(piperazine-1-carbonyl)pyridin-2(1H)-one] stands less than 0.5 µM; under `C[C@H](CC(F)(F)F)C(=O)N1CC[C@@](O)(Cn2cc(C(=O)N(C)C)c(-c3ccccc3)cc2=O)C(C)(C)C1` [Example 204, 1-(((S)-4-Hydroxy-3,3-dimethyl-1-((R)-4,4,4-trifluoro-2-methylbutanoyl)piperidin-4-yl)methyl)-N,N-dimethyl-6-oxo-4-phenyl-1,6-dihydropyridine-3-carboxamide], 0.5 to 5 µM. On to `C[C@H](CC(=O)N1CCC(O)(Cn2cc(C(=O)N3CCC[C@@H]3C)c(-c3ccccc3)cc2=O)CC1)c1ccccc1` [Example 116, 1-((4-Hydroxy-1-((R)-3-phenylbutanoyl)piperidin-4-yl)methyl)-5-((S)-2-methylpyrrolidine-1-carbonyl)-4-phenylpyridin-2(1H)-one], for which the IC50 is 0.5 to 5 µM. Under `O=C(CCC1CCC1)N1CCC(O)(Cn2cnc(-c3ccccc3F)cc2=O)CC1` [Example 3, 3-((1-(3-Cyclobutylpropanoyl)-4-hydroxypiperidin-4-yl)methyl)-6-(2-fluorophenyl)pyrimidin-4(3H)-one] stands 50 to 250 µM; under `CC(Cn1cccn1)C(=O)N1CCC(O)(Cn2cnc(-c3ccccc3F)cc2=O)C(C)(C)C1` (stereo not drawn) [Example 150, 6-(2-Fluorophenyl)-3-((4-hydroxy-3,3-dimethyl-1-(2-methyl-3-(1H-pyrazol-1-yl)propanoyl)piperidin-4-yl)methyl)pyrimidin-4(3H)-one], 50 to 250 µM.
